Source: publication PMC5787524, “Discovery of a FLT3 inhibitor LDD1937 as an anti-leukemic agent for acute myeloid leukemia” (Oncotarget, 2017)
Values joined by “and” are separate entries in the source; they are usually repeats but may differ in a detail not shown here. Identical values can stand only once. Like-named read-outs stand apart in the source and are kept apart here.

Key:
MV-4-11 cells [1] = experiment: Cell cycle analysis by PI flow cytometry; assay type: cell-based, human; details: 24 h
Experimental: For cell cycle analysis, cells were seeded in a 10 cm plate (2 × 10^6 cells per well) and treated with the LDD1937 compound. Then, the cells were fixed with ethanol and treated with RNase A (4 mg/mL) and stained with propidium iodide (PI) (Sigma Co). Cell cycle distribution was analyzed by flow cytometry with an Accuri C6 flow cytometer.

[2] = Pharmacokinetics in mice (intravenous and oral); assay type: in vivo, ICR mice; details: for AUC: read-out: AUC (converted); for half-life: read-out: Terminal half-life
Experimental: The protocols for the animal studies were approved by the Institute of Laboratory Animal Resources of Dongguk University, Seoul, South Korea (IACUC-2015-055-1). Five-week-old male Imprinting Control Region (ICR) mice were purchased from the Charles River Company Korea (Orient, Seoul, South Korea). Upon arrival, the animals were randomized and housed four per cage under strictly controlled environmental conditions (22-25°C and 48-52% relative humidity) with a 12 h light/dark cycle at an intensity of 150 to 300 Lux. All mice were provided food and water ad libitum and were then maintained during this study. In the intravenous study of LDD1937, 10 mg/kg of LDD1937 (dissolved in distilled water at a concentration of 2 mg/ml) were intravenously injected into the mice through the tail vein. A blood sample of approximately 0.12 ml was collected by cardiac puncture. Additionally, in the oral study of LDD1937, 10 mg/kg of LDD1937 (dissolved in the same solution used in the intravenous study) were orally administered to the mice. The analysis of LDD1937 and LDD1940, a metabolite of LDD1937, in biological samples was done with LC-MS/MS using the Waters UPLC-XEVO TQ system (Waters Corporation, Milford, CT, USA). […]1940, and carbamazepine (an internal standard, IS) were ionized in the multiple reaction monitoring mode with an ESI interface for positive ions ([M+H]^+). The turbo ion-spray interface was operated at an ion capillary voltage of 3.0 kV with a desolvation gas flow of 650 l/h and a cone gas flow of 10 l/h at 350°C. […] Separation was done on a reverse-phase C18 column (BEH, […]; Waters, Ireland) with a mobile phase, distilled water containing 0.1% formic acid and acetonitrile, at 30°C. After measuring the concentrations of the LDD1937 and LDD1940, standard methods were used to calculate the pharmacokinetic parameters using a non-compartmental analysis (WinNonlin 2.1; […] Corp., Mountain View, CA, USA).

IRAK4 = target: T1, IRAK4 (Homo sapiens, UniProt Q9NWZ3); experiment: In vitro IRAK4 kinase assay (LANCE Ultra); assay type: biochemical
T1 sequence (Q9NWZ3 1-460): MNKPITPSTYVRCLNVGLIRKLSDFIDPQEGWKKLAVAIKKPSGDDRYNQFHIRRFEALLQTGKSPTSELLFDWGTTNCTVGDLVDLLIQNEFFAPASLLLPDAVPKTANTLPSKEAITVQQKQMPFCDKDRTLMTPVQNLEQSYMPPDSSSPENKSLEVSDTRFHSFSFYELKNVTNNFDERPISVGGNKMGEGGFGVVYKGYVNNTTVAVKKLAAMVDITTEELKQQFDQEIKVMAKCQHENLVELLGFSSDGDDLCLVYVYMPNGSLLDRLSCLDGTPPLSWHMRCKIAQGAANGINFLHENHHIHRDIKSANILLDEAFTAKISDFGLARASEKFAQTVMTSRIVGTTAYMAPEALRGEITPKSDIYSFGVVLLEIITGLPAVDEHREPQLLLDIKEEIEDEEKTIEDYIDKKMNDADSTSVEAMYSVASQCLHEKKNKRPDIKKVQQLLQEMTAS
Experimental: The in vitro kinase assay for IRAK4 was done with the LANCE Ultra Kinase Activity Assay (Perkin Elmer) containing the ULight-p70S6K (Thr389) peptide (phosphorylation motif […]). The assays consisted of the enzyme mixed with serially diluted compounds, 50 nM ULight-p70S6K (Thr389) peptide, and 500 μM ATP prediluted in kinase buffer (50 mM HEPES (pH 7.5), 10 mM MgCl2, 1 mM EGTA, 2 mM DTT, and 0.01% Tween20). Ten microliters of the total volume of the kinase reaction were added to the wells of a 96-well assay plate. The kinase reactions were incubated for 90 min. at 25°C and stopped by the addition of 10 mM EDTA. For the detection of the phospho-substrate, the Eu-anti-phospho-p70S6K (Thr389) antibody diluted in detection buffer was added to a final concentration of 2 nM, and the reactions were then incubated for 1 h at 25°C. The signal was measured on an EnVision multi-label reader.

MV-4-11 cells [3] = experiment: Annexin V / propidium iodide flow cytometry (apoptosis); assay type: cell-based, human; details: 10 nM, 24 h
Experimental: For Annexin V staining, the Alexa Flour® 488 Annexin V/ Dead Cell Apoptosis Kit (ThermoFisher, USA) was used. Cells were seeded in 6-well plates (1 × 10^6 cells per well) and treated with compounds for 24 h. The cells were stained with Annexin V and propidium iodide (PI) according to the manufacturer’s instruction. Then, the cells were subjected to flow cytometry using an Accuri C6 flow cytometer (BD Bio-sciences, San Jose, CA, USA). The data were analyzed with the BD Accuri C6 software.

[4] = LDD1937, mice, 10 mg/kg intravenous
[5] = male, ICR, mouse, plasma, LDD1937, mice, 10 mg/kg intravenous
[6] = male, ICR, mouse, plasma, LDD1937, mice, 10 mg/kg oral

CLNR [2, 4]: 83.6 ± 9.81 mL/min/kg
GI24 h (total amount recovered from the gastrointestinal tract at 24 h) [2, 4]: 0.336 ± 0.0235 % of dose
Ae0–24 h ([2]; LDD1937, mice, 10 mg/kg oral): 0.213 ± 0.0163 % of dose
GI24 h ([2]; LDD1937, mice, 10 mg/kg oral, 10 mg/kg): 1.67 % of dose and 1.67 ± 1.92 % of dose
concentration at 10 h ([2]; male, ICR, mouse, plasma, 10 h after 10 mg/kg intravenous dosing, mice, read-out: plasma level): 30 ng/mL
MRT [2, 5]: 2.77 h
clearance [2, 5]: 83.6 ± 9.81 mL/min/kg
AUC [2, 5]: 2000 ng·h/mL
half-life [2, 5]: 2.9 ± 0.47 h
Vd ([2]; male, ICR, mouse, plasma, LDD1937, mice, 10 mg/kg intravenous, read-out: Vss): 14.1 ± 4.31 L/kg
bioavailability [2, 6]: 1.43%
AUC [2, 6]: 29.8 ng·h/mL
Cmax ([2]; male, ICR, mouse, plasma, LDD1937, mice, 10 mg/kg oral, read-out: Cmax): 23.3 ± 26.2 ng/mL
half-life [2, 6]: 1.72 ± 0.542 h
Tmax ([2]; male, ICR, mouse, plasma, LDD1937, mice, 10 mg/kg oral, read-out: Tmax (converted)): 0.5 h
plasma concentration reached ([2]; single dose 10 mg/kg intravenous, mice): 2700 ng/mL
IC50 (IRAK4): 300 nM
Compound: COC(=O)c1ccc2c(c1)/C(=C1/Nc3ccccc3/C1=N\OCCN1CCNCC1)C(=O)N2.Cl.Cl [LDD1937, methyl (2Z,3E)-2′-oxo-3-((2-(piperazin-1-yl)ethoxy)imino)-[2,3′-biindolinylidene]-5′-carboxylate dihydrochloride]
G0/G1 Percent (MV-4-11 cells [1]; 10 nM): 54.4%
Sub-G1 Percent (MV-4-11 cells [1]; 100 nM): 31.3%
Ae0–24 h (total amount excreted in 24-h urine) ([2]; LDD1937, mice, 10 mg/kg intravenous, 10 mg/kg): 0.283 % of dose and 0.283 ± 0.0252 % of dose
cells in upper right quadrant (Annexin V+ and PI+, late apoptotic) (MV-4-11 cells [3]): 24.8%
